For 7 molecules, TGI results are on record in PubChem BioAssay (NCI).

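Five compound concentrations were applied to cells in 96-well plates for 48 hours; endpoints were derived by simple linear interpolation of the resulting dose-response curve. TGI is the concentration that stops growth completely.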

Some test systems named below: OVCAR-8 ovarian; NCI-H23 lung; HL-60(TB) leukemia; MDA-MB-231 breast; SNB-75 CNS; HS 578T breast; IGROV1 ovarian; NCI-H522 lung; A549 NSCLC; A498 renal; EKVX NSCLC; SK-MEL-5 melanoma; DU-145 prostate; UACC-62 melanoma; OVCAR-3 ovarian; PC-3 prostate; U251 CNS; T-47D breast; HCC-2998 colon; M14 melanoma.
Holding throughout (assay): NCI tumour cell line growth inhibition, 48 h

In the case of `COC(=O)c1ccccc1/C=C1\Cc2ccc3c(c2C1=O)CCC3`, the TGI in the assay on OVCAR-8 ovarian, in the assay with NCI-H23 lung, in the assay on HL-60(TB) leukemia, in the assay on MDA-MB-231 breast, in the assay on SNB-75 CNS and in the assay on HS 578T breast was more than 100 µM each time. The TGI in the assay on IGROV1 ovarian, in the assay on NCI-H522 lung, in the assay with A549 NSCLC, in the assay with A498 renal, in the assay with EKVX NSCLC and in the assay with SK-MEL-5 melanoma was more than 100 µM in each case. For the same molecule, the TGI in the assay on DU-145 prostate, in the assay with UACC-62 melanoma, with OVCAR-3 ovarian, in the assay with PC-3 prostate, with U251 CNS and in the assay with T-47D breast was more than 100 µM in each case. Moreover, the TGI with HCC-2998 colon was more than 100 µM.

`CN(C)CCNc1ncnc2nc(-c3ccccc3)c(-c3ccccc3)nc12`: the TGI with OVCAR-8 ovarian, in the assay on NCI-H23 lung, in the assay with HL-60(TB) leukemia, in the assay on MDA-MB-231 breast, in the assay with SNB-75 CNS and with HS 578T breast was more than 100 µM in each case. Moreover, the TGI in the assay with IGROV1 ovarian, in the assay with NCI-H522 lung, in the assay with M14 melanoma, in the assay on A549 NSCLC, with A498 renal and in the assay on EKVX NSCLC was more than 100 µM in each case. In addition, the TGI in the assay on SK-MEL-5 melanoma, in the assay with DU-145 prostate, with UACC-62 melanoma, in the assay on OVCAR-3 ovarian, with PC-3 prostate and in the assay with U251 CNS was more than 100 µM throughout. The molecule further returned a TGI in the assay on T-47D breast of more than 100 µM.

Regarding `CSc1ncc2c(C#N)c3n(C)c4ccccc4n3c(=O)c2n1`, the TGI with OVCAR-8 ovarian, with NCI-H23 lung, with HL-60(TB) leukemia, with MDA-MB-231 breast, in the assay on SNB-75 CNS and with HS 578T breast was more than 100 µM throughout. Besides, the TGI with IGROV1 ovarian, in the assay on M14 melanoma, with A549 NSCLC, with A498 renal, in the assay on EKVX NSCLC and with SK-MEL-5 melanoma was more than 100 µM each time. In addition, the TGI in the assay with DU-145 prostate, in the assay on UACC-62 melanoma, in the assay with OVCAR-3 ovarian, with PC-3 prostate, in the assay with U251 CNS and in the assay on T-47D breast was more than 100 µM throughout. In the assay with HCC-2998 colon, this molecule came in with a TGI of more than 100 µM.

Consider `COC(=O)C(Cc1c(-c2[nH]c3ccccc3c2CC(NC(C)=O)C(=O)OC)[nH]c2ccccc12)NC(C)=O` (stereo not given), for which the TGI in the assay on OVCAR-8 ovarian, in the assay on NCI-H23 lung, in the assay with HL-60(TB) leukemia, in the assay on MDA-MB-231 breast, in the assay on SNB-75 CNS and with HS 578T breast was more than 100 µM each time. Moreover, the TGI in the assay with IGROV1 ovarian, with NCI-H522 lung, in the assay on M14 melanoma, with A549 NSCLC, in the assay on A498 renal and with EKVX NSCLC was more than 100 µM throughout. For the same molecule, the TGI with SK-MEL-5 melanoma, with DU-145 prostate, in the assay on UACC-62 melanoma, in the assay on OVCAR-3 ovarian, in the assay on PC-3 prostate and in the assay with U251 CNS was more than 100 µM in each case. In addition, the TGI with T-47D breast was more than 100 µM.

As for `COc1ccc(C[C@@H]2OC3(C=CC(=O)CC3Sc3ccccc3)O[C@H]2Cc2ccc(OC)cc2)cc1` (stereo not given in full), the TGI in the assay with OVCAR-8 ovarian was 0.966 µM; in the assay with NCI-H23 lung, 5.16 µM; in the assay on HL-60(TB) leukemia, 6.06 µM; in the assay with MDA-MB-231 breast, 7.35 µM; with SNB-75 CNS, 3.05 µM; with HS 578T breast it was 4.19 µM. The TGI in the assay on IGROV1 ovarian was found to be 2.13 µM; in the assay on M14 melanoma it was 2.75 µM; with A549 NSCLC it was 12.7 µM; in the assay with A498 renal, 16.1 µM; with SK-MEL-5 melanoma, 3.09 µM; with DU-145 prostate, 11.6 µM. In addition, the TGI amounted to 5.12 µM in the assay on UACC-62 melanoma; 3.15 µM in the assay on OVCAR-3 ovarian; 3.95 µM in the assay with PC-3 prostate; 2.78 µM in the assay with U251 CNS; 3.74 µM in the assay on T-47D breast.

As for `CNc1ccc(C)cc1S(=O)(=O)c1ccccc1[N+](=O)[O-]`, the TGI in the assay on OVCAR-8 ovarian, in the assay with NCI-H23 lung, in the assay on MDA-MB-231 breast, in the assay with SNB-75 CNS, in the assay on HS 578T breast and with IGROV1 ovarian was more than 100 µM in each case. Also, the TGI was more than 100 µM in the assay with NCI-H522 lung; more than 100 µM in the assay on M14 melanoma; more than 100 µM with A549 NSCLC; more than 100 µM with A498 renal; more than 100 µM in the assay with EKVX NSCLC; 46.1 µM with SK-MEL-5 melanoma. In addition, the TGI in the assay with DU-145 prostate, in the assay with UACC-62 melanoma, with OVCAR-3 ovarian, in the assay on PC-3 prostate, with U251 CNS and in the assay with T-47D breast was more than 100 µM throughout. Further, in the assay with HCC-2998 colon, the TGI was more than 100 µM.

`CC1(C)COC(c2cccc(C(O)c3ccc(Cl)cc3)c2)=N1` (stereo not given): the TGI is 42.3 µM in the assay with OVCAR-8 ovarian; 64.1 µM in the assay on NCI-H23 lung; more than 100 µM in the assay on HL-60(TB) leukemia; more than 100 µM in the assay on MDA-MB-231 breast; 60.5 µM in the assay on SNB-75 CNS; more than 100 µM with HS 578T breast. In addition, the TGI with IGROV1 ovarian was more than 100 µM; with NCI-H522 lung, more than 100 µM; in the assay on M14 melanoma it was 45.1 µM; in the assay with EKVX NSCLC, more than 100 µM; in the assay on SK-MEL-5 melanoma, 28.6 µM; in the assay on DU-145 prostate, more than 100 µM. Moreover, the TGI in the assay on UACC-62 melanoma worked out at 44.9 µM; in the assay on OVCAR-3 ovarian, 45.7 µM; with PC-3 prostate, 53.8 µM; in the assay with U251 CNS, 59.6 µM; with T-47D breast it was 73.9 µM; in the assay with HCC-2998 colon it was 64.7 µM.
